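Grown in 96-well plates, cells were treated for 48 hours with each compound at five concentrations. Insufficient inhibition: endpoint recorded as highest concentration tested. The concentration for 50% growth inhibition is given as GI50. TGI is the concentration that stops growth completely.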
Legend:
Experiment in all cases: NCI tumour cell line growth inhibition, 48 h
[1] = system: MALME-3M melanoma
[2] = system: IGROV1 ovarian
[3] = system: OVCAR-5 ovarian
[4] = system: RPMI-8226 leukemia
[5] = system: UO-31 renal
[6] = system: NCI-H460 lung
[7] = system: TK-10 renal
[8] = system: SF-295 CNS
[9] = system: SF-539 CNS
[10] = system: UACC-62 melanoma

SMILES | TGI [1] [µM] | TGI [2] [µM] | TGI [3] [µM] | TGI [4] [µM] | TGI [5] [µM] | TGI [6] [µM] | TGI [7] [µM] | TGI [8] [µM] | TGI [9] [µM] | TGI [10] [µM] | GI50 [1] [µM] | GI50 [2] [µM] | GI50 [3] [µM] | GI50 [5] [µM] | GI50 [6] [µM] | GI50 [7] [µM] | GI50 [8] [µM] | GI50 [9] [µM] | GI50 [10] [µM] | GI50 [4] [µM]
O=C(O)CCC(NC(=O)c1ccccc1)C(=O)O (configuration not stated) | > 100 | > 100 | > 100 | > 100 | > 100 | > 100 | > 100 | > 100 | > 100 | > 100 | – | – | – | – | – | – | – | – | – | –
CCN1Cc2c(ccc(F)c2C#N)O[C@@H](C)CNC(=O)c2c(N)nn3ccc1nc23 | 7.4 | 13 | 19.8 | – | 6.53 | 28.9 | 11.7 | 10.3 | 15.8 | 3.65 | 1.15 | 0.682 | 2.87 | 1.14 | 2.42 | 1.29 | 0.0758 | 3.46 | 0.632 | –
COc1ccc(C(=O)/C=C/c2ccc3c(c2)OCO3)c(OCc2ccccc2)c1 | > 100 | > 100 | > 100 | 76.6 | > 100 | > 100 | > 100 | > 100 | > 100 | > 100 | – | – | – | – | – | – | – | – | – | –
COC(=O)[C@]12CC=C3O[C@@H]4OC5(CCCCC5)O[C@@H]4C3[C@@H]1C(=O)CCC2=O (some centres not stated) | > 100 | > 100 | > 100 | > 100 | > 100 | > 100 | – | > 100 | – | > 100 | – | – | – | – | – | – | – | – | – | –
COc1ccc(S(=O)(=O)Nc2cc(/C=C\c3cc(OC)c(OC)c(OC)c3)ccc2OC)cc1 | 61.1 | > 100 | > 100 | 3.83 | 7.48 | 11.7 | 11.5 | 70.9 | 0.713 | > 100 | 0.0527 | 0.166 | 0.323 | 0.131 | 0.178 | 0.0768 | 0.0393 | 0.126 | 0.049 | 0.319
COc1cccc2c1C(=O)c1c(O)c3c(c(O)c1C2=O)C[C@@](O)(C(=O)CO)C[C@@H]3O[C@H]1C[C@H](N)[C@@H](O)[C@H](C)O1 | 0.718 | 21.2 | 13 | 3.61 | 5.89 | 17.1 | 10.5 | 1.54 | – | 0.498 | 0.145 | 0.175 | 1.27 | 0.866 | 0.0231 | – | 0.158 | – | 0.0847 | 0.161
Cc1c(C(=O)CC(=O)C(=O)Nc2ccc(Cl)cc2)[n+](=O)c2ccccc2n1[O-] | > 100 | > 100 | > 100 | > 100 | > 100 | > 100 | > 100 | > 100 | > 100 | > 100 | – | – | – | – | – | – | – | – | – | –
CN(C)C=[N+]=[N-] | > 100 | > 100 | > 100 | > 100 | > 100 | > 100 | > 100 | > 100 | > 100 | > 100 | – | – | – | – | – | – | – | – | – | –
C/C=C1/CCC2c3[nH]c4ccccc4c3CCN2C1 (configuration not stated) | 67.7 | > 100 | > 100 | – | > 100 | > 100 | > 100 | > 100 | > 100 | > 100 | – | – | – | – | – | – | – | – | – | –
CC(C)c1c(O)ccc2c1CCC1C(C)(C)CCCC21C (configuration not stated) | 35.6 | 30 | 28.1 | 49.3 | 31.4 | 31.7 | 35.8 | 32.5 | 34 | 28.9 | – | – | – | – | – | – | – | – | – | –
COc1ccc(CC(=O)NCCc2ccc(OC)c(OC)c2)cc1Br | > 100 | > 100 | > 100 | – | > 100 | > 100 | > 100 | > 100 | > 100 | > 100 | – | – | – | – | – | – | – | – | – | –
CCCCCCCCCCC(C(O)c1ccccc1)N1CCCCC1 (configuration not stated) | – | 3.15 | 6.85 | 4.34 | 2.84 | 3.36 | 4.83 | 3.23 | 3.84 | 4.01 | – | 1.5 | 2.47 | 1.24 | 1.84 | 2.16 | 1.83 | 2.06 | 2.01 | 1.9
O=C(NCCCCCCNC(=O)OCCSCCn1cc(C(=O)NC(=O)OCc2ccccc2)c(=O)[nH]c1=O)OCCSCCn1cc(C(=O)NC(=O)OCc2ccccc2)c(=O)[nH]c1=O | > 100 | > 100 | > 100 | > 100 | > 100 | > 100 | > 100 | > 100 | – | > 100 | – | – | – | – | – | – | – | – | – | –
CC(=O)OCC(=O)[C@@]12OC(C)(C)O[C@@H]1C[C@H]1[C@@H]3CC=C4C[C@@H](O)CC[C@]4(C)[C@H]3CC[C@@]12C | > 100 | > 100 | > 100 | > 100 | > 100 | – | > 100 | > 100 | 74.7 | > 100 | – | – | – | – | – | – | – | – | – | –
O=C(O)CCSC(=O)Nc1ccccc1F | – | – | > 100 | > 100 | > 100 | > 100 | > 100 | – | > 100 | – | – | – | – | – | – | – | – | – | – | –
CCCC/C=C1\CCC(C)(CN(C)C)C1=O (configuration not stated) | > 100 | > 100 | > 100 | – | > 100 | > 100 | > 100 | > 100 | > 100 | > 100 | – | – | – | – | – | – | – | – | – | –
COc1ccc(S(=O)(=O)N/N=C/c2cc(I)cc([N+](=O)[O-])c2O)cc1OC | 83.9 | > 100 | > 100 | 65.1 | 53.4 | > 100 | > 100 | > 100 | – | 59.7 | – | – | – | – | – | – | – | – | – | –
COC(=O)C1=C(C(=O)OC)SC(=C(Cl)C(=S)Nc2ccccc2O)S1 | > 50 | – | 31.5 | > 50 | 39.2 | > 50 | 23.9 | 24.9 | 39 | 18.6 | 21.7 | – | 11.6 | 14.4 | 11.5 | 7.05 | 6.57 | 15.9 | 8.84 | 33
CN(C)CCNC(=O)c1cccc2[nH]c(-c3cccnc3)nc12 | – | > 100 | 64.2 | – | 39.5 | 49.9 | 53.5 | > 100 | 45.5 | 34.2 | – | – | – | – | – | – | – | – | – | –

Reference: PubChem BioAssay (NCI)
